Source: patent US20250288587A1, “Methods of Treating Fibrosis” (Athira Pharma, Inc., priority 2022, published 2025)

Columns and labels:
CFA-stimulated rats [1] = experiment: CFA inflammatory pain model, thermal hyperalgesia (Hargreaves method); type: in vivo; design: key to Thermal Hyperalgesia, change in sensitivity compared to CFA alone / Thermal Hyperalgesia, significant reduction in pain behavior vs CFA alone: NS = no statistically significant change in sensitivity compared to CFA alone; + = statistically significant change in sensitivity compared to CFA alone, p < 0.05
Description: (§1) Response to peripheral inflammatory stimulus can be modeled by administering complete Freund's adjuvant (CFA), a suspension of desiccated mycobacterium in paraffin oil and mannide monooleate, by subcutaneous injection into the rat's footpad. The introduction of CFA to peripheral tissues leads to a rapid, sustained, inflammatory reaction in the treated tissue within 24 hours. Subcutaneous administration of CFA in the plantar region of the paw induces inflammatory pain behaviors that persist for at least 8 days. CFA treatment also leads to the accumulation of inflammatory cytokines in paw tissue at the site of injury, which, if unresolved, can lead to formation of fibrotic tissue. The extent of inflammatory response to CFA can be assessed by quantification of inflammatory cytokines in paw skin lysate, and inflammatory pain behaviors by mechanical allodynia (von Frey test) and thermal hyperalgesia (Hargreaves test).
(§2) In one study, Compound 2a was tested for its ability to reduce inflammatory pain behaviors in the CFA inflammation model. On study day 0, […] of CFA was administered subcutaneously in the plantar of the right hind paw. Animals were treated daily with Compound 2a in solution via oral gavage (PO) at doses of 1, 0.1, and 0.025 mg/kg. Treatment began before CFA injection on study day −1 and continued through study day 8.
Thermal hyperalgesia was measured using the Hargreaves method. A temperature ramp was applied to the right hind paw and the paw withdrawal latency (PWL) was recorded as a measure of sensitivity to thermal stimulation. […] Statistical analysis was performed using a 1-way ANOVA with Tukey post-test. A p-value below 0.05 was considered statistically significant.
(§3) In another study, Compounds 1a, 5a, and 6a were similarly tested against CFA-induced inflammatory stimulation in the right hind foot for their ability to reduce pain behaviors. This study also included quantification of inflammatory cytokine expression in paw skin lysate. Inflammatory pain stimulation with CFA injection and assessment of mechanical and thermal pain behaviors were performed as described above, with the exception that only post-dose pain behavior testing is reported.
(§4) Intraplantar CFA injection occurred at day 0. Treatment with Compounds 1a, 5a, and 6a occurred at days −2, 1, 3, and 7. At day 8, the rats were terminated and cytokine levels were measured in paw skin and plasma. Tissue from paw bone, joint, and muscle were obtained for H&E staining and analysis. Cytokine levels in test compound-treated animals were compared to CFA-stimulated animals. Analytes included interleukin 4 (IL-4), tumor necrosis factor alpha (TNF-α) and interferon gamma (IFN-γ). Statistical analysis consisted of 1-way ANOVA followed by Dunnett's multiple comparisons post-test. Mechanical allodynia and thermal hyperalgesia were tested 1 hour post-dosing on days 1, 3, and 7. PWT refers to […] paw withdrawal threshold where a higher value corresponds to a higher pain threshold. PWL refers to […] paw withdrawal latency where a higher value corresponds to a higher pain threshold.

CFA-stimulated rats [2] = experiment: as above; type: in vivo; design: key to Thermal Hyperalgesia, change in sensitivity compared to CFA alone: NS = no statistically significant change in sensitivity compared to CFA alone; + = statistically significant change in sensitivity compared to CFA alone, p < 0.05; conditions: 0.025 mg/kg PO daily; Day 3, 1 h post-dose
CFA-stimulated rats [3] = experiment: CFA inflammatory pain model, mechanical allodynia (von Frey test); type: in vivo; design: key to Mechanical Allodynia, change in sensitivity compared to CFA alone / Mechanical Allodynia, significant reduction in pain behavior vs CFA alone: NS = no statistically significant change in sensitivity compared to CFA alone; + = statistically significant change in sensitivity compared to CFA alone, p < 0.05
Description: as §1, §2
Mechanical allodynia was measured using the von Frey test. In this test, rats were placed on a wire mesh and a series of filaments designed to deliver probing force ranging from 4 to 26 grams were applied to the mid-plantar surface of the right hind paw. Animals indicated pain response by lifting the probed paw. The minimal force required to elicit the withdrawal response was recorded as the paw withdrawal threshold (PWT). Von Frey testing was performed 1 hour after Compound 2a dosing on study day 1, 3, and 7, and was also tested pre-dosing on day 7. Statistical analysis was performed using a 1-way ANOVA with Tukey post-test. A p-value below 0.05 was considered statistically significant. Control animals stimulated with CFA but treated with only vehicle had high sensitivity to mechanical stimulation compared to normal control animals.
as §3, §4

MRC-5 cells = experiment: TGFβ-stimulated αSMA expression in MRC-5 cells (HTRF); type: cell-based; design: key to Significant reduction in αSMA via HTRF compared to TGFβ alone: NS = no statistically significant change in aSMA expression; + = p < 0.05; ++ = p < 0.01; +++ = p < 0.005; ++++ = p < 0.001; conditions: for Significant reduction in αSMA via HTRF compared to TGFβ alone: TGFβ 1 ng/ml, HGF 0.01 ng/ml, 48 h
Description: In this study, pulmonary-derived immortalized fibroblasts, MRC-5 cells, were cultured as a model of the early transition to fibrosis, and αSMA expression was measured using an immunodetection system driven by homogenous time-resolved fluorescence (HTRF) technology. This detection system produces a fluorescent signal in the presence of αSMA in cell lysates. Cells were grown to confluence in 96-well culture plates in complete media, and then transitioned to serum-free media for 2 hours. Next TGFβ (final 1 ng/ml in serum-free media) was added to the cells to stimulate the fibrotic transition. After 2 hours, media containing either HGF or HGF combined with one of the compounds was added to the cells. After incubation for 48 hours, cells were lysed and processed for αSMA HTRF to detect the levels of αSMA expression and compared to TGFβ-stimulated cultures. Statistical analysis consisted of 1-way ANOVA with a Dunnett's multiple comparison's post-test.

[4] = 0.025 mg/kg PO daily, Day 1, 1 h post-dose
[5] = 0.025 mg/kg PO daily, Day 7 post-dose
[6] = 0.025 mg/kg PO daily, Day 7 pre-dose
[7] = 0.1 mg/kg PO daily, Day 1, 1 h post-dose
[8] = 0.1 mg/kg PO daily, Day 3, 1 h post-dose
[9] = 0.1 mg/kg PO daily, Day 7 post-dose
[10] = 0.1 mg/kg PO daily, Day 7 pre-dose
[11] = 1 mg/kg PO daily, Day 1, 1 h post-dose
[12] = 1 mg/kg PO daily, Day 3, 1 h post-dose
[13] = 1 mg/kg PO daily, Day 7 post-dose
[14] = 1 mg/kg PO daily, Day 7 pre-dose

## CCC(C)CN1CC2N(C(=O)c3ccc(OC(F)F)cc3)CCC(=O)N2[C@@H](C)C1=O (some centres unmarked) [Compound 2a]
CFA-stimulated rats [1]; [4]
  Thermal Hyperalgesia, change in sensitivity compared to CFA alone: NS
CFA-stimulated rats [1]; [5]
  Thermal Hyperalgesia, change in sensitivity compared to CFA alone: NS
CFA-stimulated rats [1]; [6]
  Thermal Hyperalgesia, change in sensitivity compared to CFA alone: NS
CFA-stimulated rats [1]; [7]
  Thermal Hyperalgesia, change in sensitivity compared to CFA alone: NS
CFA-stimulated rats [1]; [8]
  Thermal Hyperalgesia, change in sensitivity compared to CFA alone: NS
CFA-stimulated rats [1]; [9]
  Thermal Hyperalgesia, change in sensitivity compared to CFA alone: NS
CFA-stimulated rats [1]; [10]
  Thermal Hyperalgesia, change in sensitivity compared to CFA alone: NS
CFA-stimulated rats [1]; [11]
  Thermal Hyperalgesia, change in sensitivity compared to CFA alone: NS
CFA-stimulated rats [1]; [12]
  Thermal Hyperalgesia, change in sensitivity compared to CFA alone: + (+ = statistically significant change in sensitivity compared to CFA alone, p < 0.05)
CFA-stimulated rats [1]; [13]
  Thermal Hyperalgesia, change in sensitivity compared to CFA alone: NS
CFA-stimulated rats [1]; [14]
  Thermal Hyperalgesia, change in sensitivity compared to CFA alone: + (+ = statistically significant change in sensitivity compared to CFA alone, p < 0.05)
CFA-stimulated rats [1]; 1 mg/kg, day 3 and pre-dose testing on day 7
  thermal sensitivity (paw withdrawal latency): reduced thermal sensitivity
CFA-stimulated rats [2]
  Thermal Hyperalgesia, change in sensitivity compared to CFA alone: NS
CFA-stimulated rats [3]; [4]
  Mechanical Allodynia, change in sensitivity compared to CFA alone: NS
CFA-stimulated rats [3]; 0.025 mg/kg PO daily, Day 3, 1 h post-dose
  Mechanical Allodynia, change in sensitivity compared to CFA alone: NS
CFA-stimulated rats [3]; [5]
  Mechanical Allodynia, change in sensitivity compared to CFA alone: NS
CFA-stimulated rats [3]; [6]
  Mechanical Allodynia, change in sensitivity compared to CFA alone: NS
CFA-stimulated rats [3]; [7]
  Mechanical Allodynia, change in sensitivity compared to CFA alone: NS
CFA-stimulated rats [3]; [8]
  Mechanical Allodynia, change in sensitivity compared to CFA alone: NS
CFA-stimulated rats [3]; [9]
  Mechanical Allodynia, change in sensitivity compared to CFA alone: NS
CFA-stimulated rats [3]; [10]
  Mechanical Allodynia, change in sensitivity compared to CFA alone: NS
CFA-stimulated rats [3]; [11]
  Mechanical Allodynia, change in sensitivity compared to CFA alone: NS
CFA-stimulated rats [3]; [12]
  Mechanical Allodynia, change in sensitivity compared to CFA alone: NS
CFA-stimulated rats [3]; [13]
  Mechanical Allodynia, change in sensitivity compared to CFA alone: + (+ = statistically significant change in sensitivity compared to CFA alone, p < 0.05)
CFA-stimulated rats [3]; [14]
  Mechanical Allodynia, change in sensitivity compared to CFA alone: NS
CFA-stimulated rats [3]; 1 mg/kg, study day 7, post-dose testing
  mechanical allodynia (paw withdrawal threshold): reduced mechanical allodynia
MRC-5 cells; 1 uM, combined with 0.01 ng/ml HGF
  αSMA expression: significantly reduced αSMA
MRC-5 cells; test compound 1 nM
  Significant reduction in αSMA via HTRF compared to TGFβ alone: NS
MRC-5 cells; test compound 1 μM
  Significant reduction in αSMA via HTRF compared to TGFβ alone: ++++ (++++ = p < 0.001)
